Laboratory results from patent publication US20120238488A1, “COMPOUNDS AND METHODS FOR TREATING NEOPLASIA” (priority 2009, published 2012).
Like-named read-outs stand apart in the source and are kept apart here.

Tests used:
SKMEL28 (Melanoma) = assay: SRB assay, SKMEL28; type: cell-based, human; settings: for CC50 / GI50: Homo sapiens; for CC50: SK-MEL-28, 48 h, read-out: LC50; for GI50: SK-MEL-28; for GI50 / TGI: SKMEL28, SRB, 48 h
How it was run: (§1)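 Here GI50 marks halving of net protein increase, TGI the dose where final equals time-zero protein, and LC50 a 50% protein fall from baseline.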

OVCAR5 (Ovary) = assay: SRB assay, OVCAR5; type: cell-based, human; settings: for CC50 / GI50: Homo sapiens; for CC50: OVCAR-5, 48 h, read-out: LC50; for GI50: OVCAR-5; for GI50 / TGI: OVCAR5, SRB, 48 h
Description: (§2) SRB assays were performed according to standard National Cancer Institute Guidelines. Briefly, human tumor cells from different cancer panels were seeded into 96 well plates in 100 μL (plating densities ranging from 5-40,000 cells/well depending on the doubling time of individual cell lines) in serum-containing media for twenty-four hours prior to the addition of the compounds to be assayed. After 24 hours, one plate of each cell line was fixed in situ with trichloroacetic acid (TCA). The fixed slides were used to determine the cell population for each cell line at the time of drug addition (Tz). Each compound to be tested was solubilized in DMSO and the desired concentration was then added to the medium and diluted serially 1:10 to provide a total of five or ten drug concentrations plus control (in a final volume of 200 μL). The starting dose before any dilution was 100 uM for all compounds.
(§3) Following drug addition, each culture was incubated for forty-eight hours. The assay was terminated with the addition of cold TCA. The supernatant was discarded, and the plates were washed with tap water and air dried. Sulforhodamine B (SRB) solution was then added to each well. After staining, the bound stain was solubilized and the absorbance was read on an automated plate reader at a wavelength of 515 nm.
(§4) Using the absorbance measurements [time zero, (Tz), control growth, (C), and test growth in the presence of drug at the ten concentration levels (Ti)], the percentage growth was calculated at each of the drug concentrations levels. Percentage growth inhibition was calculated as:
(§5) [(Ti−Tz)/(C−Tz)]×100 for concentrations for which Ti>/=Tz
(§6) [(Ti−Tz)/Tz]×100 for concentrations for which Ti<Tz.
(§7) Three dose response parameters were calculated for each experimental agent. Growth inhibition of 50% (GI50) was calculated from [(Ti−Tz)/(C−Tz)]×100=50, which was the drug concentration resulting in a 50% reduction in the net protein increase (as measured by SRB staining) in control cells during the drug. The drug concentration resulting in total growth inhibition (TGI) was calculated from Ti=Tz. The LC50 (concentration of drug resulting in a 50% reduction in the measured protein at the end of the drug treatment as compared to that at the beginning) indicating a net loss of cells following treatment was calculated from [(Ti−Tz)/Tz]×100=−50.
(§8) Values were calculated for each of these three parameters when the level of activity was reached; however, if the effect was not reached or was exceeded, the value for that parameter was expressed as greater or less than the maximum or minimum concentration tested.
(§9) Table 4 summarizes results characterizing the effects of compound Nos. 120, 12, 61, 1, and 56 on GI50, which measures the cell growth inhibitory power of the compound, TGI, which measures cytostatic effect (TGI) and LC50, which signifies cytotoxic effect. Each of these parameters in Table 4 was calculated in a sulforhodamine B (SRB) assay, which provides a colorimetric measure of a compound's anti-cancer activity. SRB assays were performed with compounds of the invention in 22 different cell lines (shaded in light gray in Table 4), which represent nine different tumor panels (lung, melanoma, ovary, prostate, CNS, breast, pancreas colon and renal). Ouabain and digoxin were used as controls. Paclitaxel was added as a non-Na^+K^+-ATPase inhibitor control.

OVCAR3 (Ovary) = assay: SRB assay, OVCAR3; type: cell-based, human; settings: for CC50 / GI50: Homo sapiens; for CC50: OVCAR-3, 48 h, read-out: LC50; for GI50: OVCAR-3; for GI50 / TGI: OVCAR3, SRB, 48 h
Description: as §2, §3, §4, §5, §6, §7, §8, §9

DU145 (Prostate) = assay: SRB assay, DU145; type: cell-based, human; settings: for TGI / GI50: DU145, SRB, 48 h; for CC50 / GI50: Homo sapiens; for CC50: DU-145, 48 h, read-out: LC50; for GI50: DU-145
How it was run: as §1

MB435 (Melanoma) = assay: SRB assay, MB435; type: cell-based, human; settings: 48 h; for CC50 / GI50: Homo sapiens; for CC50: read-out: LC50; for GI50 / TGI: MB435, SRB
Description: as §2, §3, §4, §5, §6, §7, §8, §9

A549 (Lung) = assay: SRB assay, A549; type: cell-based, human; settings: for TGI / GI50: A549, SRB, 48 h; for CC50 / GI50: Homo sapiens; for CC50: A549, 48 h, read-out: LC50
How it was run: as §1

SF268 (CNS) = assay: SRB assay, SF268; type: cell-based; settings: Homo sapiens; for CC50: read-out: LC50; for IC (TGI): read-out: TGI
How it was run: as §1

ERVK (Lung) = assay: SRB assay, ERVK; type: cell-based, human; settings: 48 h; for TGI / GI50: ERVK, SRB; for CC50 / GI50: Homo sapiens; for CC50: read-out: LC50
Description: as §2, §3, §4, §5, §6, §7, §8, §9

ADRRES (Ovary) = assay: SRB assay, ADRRES (multidrug resistant NCI-ADR-RES); type: cell-based, human; settings: for TGI / GI50: ADRRES; for TGI / CC50 / GI50: 48 h; for CC50 / GI50: Homo sapiens, NCI/ADR-RES; for CC50: read-out: LC50
CAKJ1 (Renal) = assay: SRB assay, CAKJ1; type: cell-based, human; settings: 48 h; for TGI / GI50: CAKJ1, SRB; for CC50 / GI50: Homo sapiens; for CC50: read-out: LC50
How it was run: as §1

PCJ (Prostate) = assay: SRB assay, PCJ; type: cell-based; settings: Homo sapiens, 48 h; for CC50: read-out: LC50; for GI50 / IC (TGI): PCJ, SRB
How it was run: as §1

[1] = tested on: Na+/K+-ATPase (Adenosine 5′-Triphosphatase isolated from porcine cerebral cortex); assay: Na+/K+-ATPase inhibitory activity, colorimetric Adenosine 5'-Triphosphatase Enzymatic Assay; type: biochemical
Description: The inhibitory effect of a compound of the invention on ATPase activity was assessed in vitro using the colorimetric Adenosine 5′-Triphosphatase Enzymatic Assay of Sigma (St. Louis, Mo.) according to the manufacturer's instructions. This assay utilizes Adenosine 5′-Triphosphatase isolated from porcine cerebral cortex. Each reaction was performed in a final volume of 250 μl using 0.5 units/ml enzyme in the presence of different inhibitors. […] IC50 values were determined using the Origin® program software (OriginLab, Northampton, Mass.).

HCT116 (Colon) = assay: SRB assay, HCT116; type: cell-based; settings: Homo sapiens; for CC50: HCT-116, 48 h, read-out: LC50; for GI50 / IC (TGI): HCT-116, HCT116, SRB, 48 h
How it was run: as §1

Row | Compound | CC50 (SKMEL28 (Melanoma)) [µM] | GI50 (SKMEL28 (Melanoma)) [µM] | TGI (SKMEL28 (Melanoma)) [µM] | CC50 (OVCAR5 (Ovary)) [µM] | GI50 (OVCAR5 (Ovary)) [µM] | TGI (OVCAR5 (Ovary)) [µM] | CC50 (OVCAR3 (Ovary)) [µM] | GI50 (OVCAR3 (Ovary)) [µM] | TGI (OVCAR3 (Ovary)) [µM] | TGI (DU145 (Prostate)) [µM] | CC50 (DU145 (Prostate)) [µM] | GI50 (DU145 (Prostate)) [µM] | CC50 (MB435 (Melanoma)) [µM] | GI50 (MB435 (Melanoma)) [µM] | TGI (MB435 (Melanoma)) [µM] | TGI (A549 (Lung)) [µM] | CC50 (A549 (Lung)) [µM] | GI50 (A549 (Lung)) [µM] | CC50 (SF268 (CNS); SF-268, 48 h) [µM] | TGI (ERVK (Lung)) [µM] | also measured
1 | C[C@]12CCC(=NOCCN)C=C1CCC1C2CC[C@@]2(C)C1CC[C@@H]2O (stereo partly drawn) [Compound 120, (1S,9aR,11aS)-17-hydroxy-10,13-dimethyl-6,7,8,9,10,11,12,13,14,15,16,17-dodecahydro-1H-cyclopenta[a]phenanthren-3(2H)-one O-2-aminoethyl oxime] | 79.6 | 19.9 | 49.74 | 87.1 | 20.5 | 53.80 | > 100 | 6.5 | 41.51 | 13.54 | 68.5 | 5.87 | 98.9 | 7.29 | 38.95 | 62.82 | ≥ 179 | 6.91 | 20.4 | 38.23 | GI50 (SF268 (CNS); SF-268, SF268, SRB, 48 h, read-out: GI50): 4.65 µM; IC (TGI) (SF268 (CNS); SF-268, SF268, SRB, 48 h): 9.08 µM; CC50 (ERVK (Lung)): ≥ 105 µM; GI50 (ERVK (Lung)): 4.57 µM; TGI (ADRRES (Ovary); SRB): 42.91 µM; CC50 (ADRRES (Ovary)): 81.9 µM; GI50 (ADRRES (Ovary); SRB): 8.73 µM; GI50 in NCI-ADR-RES cells compared to non-resistant MCF-7 cells (ADRRES (Ovary); SRB): the same GI50 value; anti-tumor action in multidrug resistant cell line NCI-ADR-RES (ADRRES (Ovary); SRB, cells express high levels of MDR1 and P-glycoprotein): potent anti-tumor action; TGI (CAKJ1 (Renal)): 9.90 µM; CC50 (CAKJ1 (Renal)): 61 µM; GI50 (CAKJ1 (Renal)): 4.91 µM; CC50 (PCJ (Prostate)): 29.4 µM; GI50 (PCJ (Prostate)): 4.57 µM; IC (TGI) (PCJ (Prostate)): 14.2 µM; Na+K+ ATPase inhibitory activity (in words) [1]: strong Na+K+ ATPase inhibitory activities; IC50 ([1]; 0.5 units/ml enzyme, five concentrations 10^−5 to 10^−9M, read-out: Na+ K+ Inhibitory Activity (IC50)): 0.897 µM; CC50 (HCT116 (Colon)): 39.2 µM; GI50 (HCT116 (Colon)): 4.28 µM; IC (TGI) (HCT116 (Colon)): 16.1 µM
2 | C[C@H]1O[C@@H](O[C@H]2[C@@H](O)C[C@H](O[C@H]3[C@@H](O)C[C@H](O[C@H]4CC[C@@]5(C)[C@H](CC[C@@H]6[C@@H]5C[C@@H](O)[C@]5(C)[C@@H](C7=CC(=O)OC7)CC[C@]65O)C4)O[C@@H]3C)O[C@@H]2C)C[C@H](O)[C@@H]1O [Digoxin, reference compound] | > 100 | 0.08 | 6.50 | 0.84 | < 0.01 | 0.43 | 22.2 | < 0.01 | 2.65 | 0.07 | 0.36 | 0.03 | 7.69 | 0.07 | 0.53 | 0.06 | 1.14 | < 0.001 | 0.1 | 0.09 | GI50 (SF268 (CNS); SF-268, 48 h): < 0.08 µM; IC (TGI) (SF268 (CNS); SF-268, 48 h): < 0.08 µM; CC50 (ERVK (Lung)): 0.68 µM; GI50 (ERVK (Lung)): < 0.01 µM; TGI (ADRRES (Ovary); SRB): 0.10 µM; CC50 (ADRRES (Ovary)): 0.75 µM; GI50 (ADRRES (Ovary); SRB): 0.04 µM; TGI (CAKJ1 (Renal)): 0.07 µM; CC50 (CAKJ1 (Renal)): 0.2 µM; GI50 (CAKJ1 (Renal)): < 0.01 µM; CC50 (PCJ (Prostate)): 0.3 µM; GI50 (PCJ (Prostate)): < 0.08 µM; IC (TGI) (PCJ (Prostate)): 0.1 µM; IC50 ([1]; read-out: Na+K+ ATPase inhibitory activity IC50): 0.204 µM; CC50 (HCT116 (Colon)): > 50 µM; GI50 (HCT116 (Colon)): < 0.08 µM; IC (TGI) (HCT116 (Colon)): 0.7 µM
